These results are taken from patent publication US20240158446A1, “CYCLIC COMPOUND HAVING SELECTIVE INHIBITORY ACTION ON KRAS OVER HRAS AND NRAS” (CHUGAI SEIYAKU KABUSHIKI KAISHA, priority 2021, published 2024).

Assay [1] deals with GDP-bound NRAS wild-type protein (Homo sapiens, UniProt P01111). Briefly: Binding to NRAS by surface plasmon resonance (SPR), Single Cycle Kinetics. The settings on record: ratio of KD for GDP-bound NRAS wild-type protein to KD for KRAS, SPR. On the technique in general: SPR reads the build-up and loss of mass on a sensor chip optically.
Chain of GDP-bound NRAS wild-type protein (P01111 whole entry): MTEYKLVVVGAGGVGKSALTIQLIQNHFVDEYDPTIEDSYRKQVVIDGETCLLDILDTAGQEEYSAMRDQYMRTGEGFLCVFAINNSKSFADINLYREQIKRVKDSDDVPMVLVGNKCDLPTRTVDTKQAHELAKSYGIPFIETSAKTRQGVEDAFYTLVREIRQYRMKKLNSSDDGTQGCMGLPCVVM
For assay [2], the target named is GDP-bound KRAS wild-type protein (Homo sapiens, UniProt P01116). Put plainly: Binding to KRAS by surface plasmon resonance (SPR), Single Cycle Kinetics. The settings on record: SPR, Single Cycle Kinetics, GDP-bound KRAS wild-type protein; read-out: KRAS KD.
Chain of GDP-bound KRAS wild-type protein (P01116 whole entry): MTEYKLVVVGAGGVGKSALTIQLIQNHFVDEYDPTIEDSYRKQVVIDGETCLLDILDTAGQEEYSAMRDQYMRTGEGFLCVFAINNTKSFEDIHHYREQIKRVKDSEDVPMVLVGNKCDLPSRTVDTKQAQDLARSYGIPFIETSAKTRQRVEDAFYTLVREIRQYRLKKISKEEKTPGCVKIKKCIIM
The test system of assay [3] is human lung cancer strain NCI-H441. Briefly: cells. The note with it: NCI-H441, 96 h, read-out: NCI-H441 IC50 (nM), NCI-H441 cell proliferation, 4 days, CellTiter-Glo. (In ATP-based viability assays light output follows the ATP content of the culture.);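 also: cell proliferation inhibition after four days measured by CellTiter-Glo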
Assay [4] addresses GDP-bound HRAS wild-type protein (Homo sapiens, UniProt P01112). Put plainly: Binding to HRAS by surface plasmon resonance (SPR), Single Cycle Kinetics. The settings on record: ratio of KD for GDP-bound HRAS wild-type protein to KD for KRAS, SPR.

Chain of GDP-bound HRAS wild-type protein (P01112 whole entry): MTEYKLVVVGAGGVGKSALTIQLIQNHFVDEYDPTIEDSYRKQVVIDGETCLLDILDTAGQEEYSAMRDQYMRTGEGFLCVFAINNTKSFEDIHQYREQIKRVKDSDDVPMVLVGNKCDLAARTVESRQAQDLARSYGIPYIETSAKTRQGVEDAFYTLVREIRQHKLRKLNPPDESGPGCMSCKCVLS

As to `CCO[C@@H]1C[C@H]2C(=O)NC3(CC(C)(C)C3)C(=O)N(C)[C@@H](C3CCCC3)C(=O)N(C)[C@H](CC)CC(=O)N(C)[C@@H](CC3CC3)C(=O)N[C@@H]([C@@H](C)CC)C(=O)N(C)CC(=O)N(C)[C@H]3C/C=C\CCN(C3=O)[C@@H](Cc3ccc(C(F)(F)F)cc3)C(=O)N(C)CC(=O)N[C@@H](CCc3cc(F)c(C(F)(F)F)c(F)c3)C(=O)N2C1` [PP1629], the “NRAS/KRAS (KD ratio)” value in assay [1] is “B (a compound having 3 or more and less than 10 is denoted as B)”. Besides, in assay [2], the Kd (as a rule, the constant that tells how readily two partners part at equilibrium) stood at 0.36 nM. For the same compound, the IC50 in assay [3] turned out to be 20.7 nM. The “HRAS/KRAS (KD ratio)” value in assay [4] is “B (a compound having 3 or more and less than 10 is denoted as B)”.

With `CCO[C@@H]1C[C@H]2C(=O)NC3(CCC3)C(=O)N(C)[C@@H](C(CC)CC)C(=O)N(C)[C@H](CC)CC(=O)N(C)[C@@H](CC3CC3)C(=O)N[C@@H]([C@@H](C)CC)C(=O)N(C)CC(=O)N(C)[C@H]3C/C=C\CCN(C3=O)[C@@H](Cc3ccc(C(F)(F)F)cc3)C(=O)N(C)CC(=O)N[C@@H](CCc3cc(F)c(C(F)(F)F)c(F)c3)C(=O)N2C1` [PP1630], the “NRAS/KRAS (KD ratio)” value in assay [1] is “A (a compound having 10 or more and less than 20 is denoted as A)”. In addition, in assay [2], the Kd is 1.8 nM. For the same compound, the IC50 in assay [3] was found to be 144 nM. For the same compound, in assay [4], the “HRAS/KRAS (KD ratio)” value was “A (a compound having 10 or more and less than 20 is denoted as A)”.

On to `CCO[C@@H]1C[C@H]2C(=O)NC3(CC(F)(F)C3)C(=O)N(C)[C@@H](C(CC)CC)C(=O)N(C)[C@H](CC)CC(=O)N(C)[C@@H](CC3CC3)C(=O)N[C@@H]([C@@H](C)CC)C(=O)N(C)CC(=O)N(C)[C@H]3C/C=C\CCN(C3=O)[C@@H](Cc3ccc(C(F)(F)F)cc3)C(=O)N(C)CC(=O)N[C@@H](CCc3cc(F)c(C(F)(F)F)c(F)c3)C(=O)N2C1` [PP1632], for which the “NRAS/KRAS (KD ratio)” value in assay [1] is “A (a compound having 10 or more and less than 20 is denoted as A)”. Further, the Kd in assay [2] turned out to be 3.7 nM. In assay [3], the IC50 turned out to be 116 nM. The “HRAS/KRAS (KD ratio)” value in assay [4] is “A (a compound having 10 or more and less than 20 is denoted as A)”.

For `CCO[C@@H]1C[C@H]2C(=O)NC3(CC(F)(F)C3)C(=O)N(C)[C@@H](C3CCCC3)C(=O)N(C)[C@H](CC)CC(=O)N(C)[C@@H](CC3CC3)C(=O)N[C@@H]([C@@H](C)CC)C(=O)N(C)CC(=O)N(C)[C@H]3C/C=C\CCN(C3=O)[C@@H](Cc3ccc(C(F)(F)F)cc3)C(=O)N(C)CC(=O)N[C@@H](CCc3cc(F)c(C(F)(F)F)c(F)c3)C(=O)N2C1` [PP1633], the “NRAS/KRAS (KD ratio)” value in assay [1] is “A (a compound having 10 or more and less than 20 is denoted as A)”. Besides, the Kd in assay [2] was determined as 0.6 nM. Also, the IC50 in assay [3] is 15.1 nM. Further, the “HRAS/KRAS (KD ratio)” value in assay [4] is “B (a compound having 3 or more and less than 10 is denoted as B)”.

For the compound `CCO[C@@H]1C[C@H]2C(=O)NC3(CC(C)(C)C3)C(=O)N(C)[C@@H](C(CC)CC)C(=O)N(C)[C@H](C3CCC3)CC(=O)N(C)[C@@H](CC3CC3)C(=O)N[C@@H]([C@@H](C)CC)C(=O)N(C)CC(=O)N(C)[C@H]3C/C=C\CCN(C3=O)[C@@H](Cc3ccc(C(F)(F)F)cc3)C(=O)N(C)CC(=O)N[C@@H](CCc3cc(F)c(C(F)(F)F)c(F)c3)C(=O)N2C1` [PP1634], the “NRAS/KRAS (KD ratio)” value in assay [1] was “A (a compound having 10 or more and less than 20 is denoted as A)”. The Kd in assay [2] worked out at 5.1 nM. In assay [3], the IC50 amounted to 144 nM. For the same compound, in assay [4], the “HRAS/KRAS (KD ratio)” value is “A (a compound having 10 or more and less than 20 is denoted as A)”.

Take `CCO[C@@H]1C[C@H]2C(=O)NC3(CC(C)(C)C3)C(=O)N(C)[C@@H](C3CCCC3)C(=O)N(C)[C@H](C3CCC3)CC(=O)N(C)[C@@H](CC3CC3)C(=O)N[C@@H]([C@@H](C)CC)C(=O)N(C)CC(=O)N(C)[C@H]3C/C=C\CCN(C3=O)[C@@H](Cc3ccc(C(F)(F)F)cc3)C(=O)N(C)CC(=O)N[C@@H](CCc3cc(F)c(C(F)(F)F)c(F)c3)C(=O)N2C1` [PP1635]: the “NRAS/KRAS (KD ratio)” value in assay [1] was “B (a compound having 3 or more and less than 10 is denoted as B)”. Also, the Kd in assay [2] came to 0.64 nM. In addition, in assay [3], the IC50 was 36.3 nM. Besides, in assay [4], the “HRAS/KRAS (KD ratio)” value is “A (a compound having 10 or more and less than 20 is denoted as A)”.

As for `CCO[C@@H]1C[C@H]2C(=O)NC3(CCC3)C(=O)N(C)[C@@H](C3CCCC3)C(=O)N(C)[C@H](C3CCC3)CC(=O)N(C)[C@@H](CC3CC3)C(=O)N[C@@H]([C@@H](C)CC)C(=O)N(C)CC(=O)N(C)[C@H]3C/C=C\CCN(C3=O)[C@@H](Cc3ccc(C(F)(F)F)cc3)C(=O)N(C)CC(=O)N[C@@H](CCc3cc(F)c(C(F)(F)F)c(F)c3)C(=O)N2C1` [PP1637], in assay [1], the “NRAS/KRAS (KD ratio)” value is “A (a compound having 10 or more and less than 20 is denoted as A)”. Moreover, in assay [2], the Kd stood at 0.32 nM. For the same compound, the IC50 in assay [3] came to 32.5 nM. The “HRAS/KRAS (KD ratio)” value in assay [4] was “A (a compound having 10 or more and less than 20 is denoted as A)”.

On to `CCO[C@@H]1C[C@H]2C(=O)NC3(CC(F)(F)C3)C(=O)N(C)[C@@H](C3CCCC3)C(=O)N(C)[C@H](C3CCC3)CC(=O)N(C)[C@@H](CC3CC3)C(=O)N[C@@H]([C@@H](C)CC)C(=O)N(C)CC(=O)N(C)[C@H]3C/C=C\CCN(C3=O)[C@@H](Cc3ccc(C(F)(F)F)cc3)C(=O)N(C)CC(=O)N[C@@H](CCc3cc(F)c(C(F)(F)F)c(F)c3)C(=O)N2C1` [PP1639], for which the “NRAS/KRAS (KD ratio)” value in assay [1] was “A (a compound having 10 or more and less than 20 is denoted as A)”. Moreover, the Kd in assay [2] worked out at 0.68 nM. The IC50 in assay [3] came to 44.8 nM. Also, in assay [4], the “HRAS/KRAS (KD ratio)” value was “A (a compound having 10 or more and less than 20 is denoted as A)”.

In the case of `CCO[C@@H]1C[C@H]2C(=O)NC3(CC(C)(C)C3)C(=O)N(C)[C@@H](C3CCCC3)C(=O)N(C)[C@H](C(=O)N(C)C)CC(=O)N(C)[C@@H](C)C(=O)N[C@@H]([C@@H](C)CC)C(=O)N(C)CC(=O)N(C)[C@H]3C/C=C\CCN(C3=O)[C@@H](Cc3ccc(C(F)(F)F)cc3)C(=O)N(C)CC(=O)N[C@@H](CCc3cc(F)c(C(F)(F)F)c(F)c3)C(=O)N2C1` [PP1641], the “NRAS/KRAS (KD ratio)” value in assay [1] was “A (a compound having 10 or more and less than 20 is denoted as A)”. The Kd in assay [2] turned out to be 0.098 nM. Besides, the IC50 in assay [3] amounted to 4.6 nM. Moreover, in assay [4], the “HRAS/KRAS (KD ratio)” value was “A (a compound having 10 or more and less than 20 is denoted as A)”.

For `CCO[C@@H]1C[C@H]2C(=O)NC3(CC(C)(C)C3)C(=O)N(C)[C@@H](C3CCCC3)C(=O)N(C)[C@H](C(=O)N(C)CC)CC(=O)N(C)[C@@H](CC(F)F)C(=O)N[C@@H]([C@@H](C)CC)C(=O)N(C)CC(=O)N(C)[C@H]3C/C=C\CCN(C3=O)[C@@H](Cc3ccc(C(F)(F)F)cc3)C(=O)N(C)CC(=O)N[C@@H](CCc3cc(F)c(C(F)(F)F)c(F)c3)C(=O)N2C1` [PP1643], the “NRAS/KRAS (KD ratio)” value in assay [1] is “A (a compound having 10 or more and less than 20 is denoted as A)”. In assay [2], the Kd is 0.055 nM. The IC50 in assay [3] is 1.6 nM. Also, the “HRAS/KRAS (KD ratio)” value in assay [4] is “A (a compound having 10 or more and less than 20 is denoted as A)”.

As to `CCO[C@@H]1C[C@H]2C(=O)NC3(CC(C)(C)C3)C(=O)N(C)[C@@H](C3CCCC3)C(=O)N(C)[C@H](C(=O)N(C)C)CC(=O)N(C)[C@@H](CC(F)(F)F)C(=O)N[C@@H]([C@@H](C)CC)C(=O)N(C)CC(=O)N(C)[C@H]3C/C=C\CCN(C3=O)[C@@H](Cc3ccc(C(F)(F)F)cc3)C(=O)N(C)CC(=O)N[C@@H](CCc3cc(F)c(C(F)(F)F)c(F)c3)C(=O)N2C1` [PP1644], the “NRAS/KRAS (KD ratio)” value in assay [1] is “A (a compound having 10 or more and less than 20 is denoted as A)”. For the same compound, the Kd in assay [2] is 0.038 nM. The IC50 in assay [3] is 2.7 nM. The “HRAS/KRAS (KD ratio)” value in assay [4] was “A (a compound having 10 or more and less than 20 is denoted as A)”.

`CCC[C@H]1C(=O)N[C@@H]([C@@H](C)CC)C(=O)N(C)CC(=O)N(C)[C@H]2C/C=C\CCN(C2=O)[C@@H](Cc2ccc(C(F)(F)F)cc2)C(=O)N(C)CC(=O)N[C@@H](CCc2cc(F)c(C(F)(F)F)c(F)c2)C(=O)N2C[C@H](OCC)C[C@H]2C(=O)NC2(CC(C)(C)C2)C(=O)N(C)[C@@H](C2CCCC2)C(=O)N(C)[C@H](C(=O)N(C)C)CC(=O)N1C` [PP1645]: the “NRAS/KRAS (KD ratio)” value in assay [1] was “A (a compound having 10 or more and less than 20 is denoted as A)”. In addition, the Kd in assay [2] was 0.04 nM. The IC50 in assay [3] amounted to 1.8 nM. Besides, the “HRAS/KRAS (KD ratio)” value in assay [4] was “A (a compound having 10 or more and less than 20 is denoted as A)”.

With `CCC[C@H]1C(=O)N[C@@H]([C@@H](C)CC)C(=O)N(C)CC(=O)N(C)[C@H]2C/C=C\CCN(C2=O)[C@@H](Cc2ccc(C(F)(F)F)cc2)C(=O)N(C)CC(=O)N[C@@H](CCc2cc(F)c(C(F)(F)F)c(F)c2)C(=O)N2C[C@H](OCC)C[C@H]2C(=O)NC2(CC(C)(C)C2)C(=O)N(C)[C@@H](C2CCCC2)C(=O)N(C)[C@H](C(=O)N(C)CC)CC(=O)N1C` [PP1646], the “NRAS/KRAS (KD ratio)” value in assay [1] is “A (a compound having 10 or more and less than 20 is denoted as A)”. For the same compound, the Kd in assay [2] came out at 0.12 nM. Moreover, the IC50 in assay [3] amounted to 2.8 nM. Further, the “HRAS/KRAS (KD ratio)” value in assay [4] is “A (a compound having 10 or more and less than 20 is denoted as A)”.

Turning to `CCO[C@@H]1C[C@H]2C(=O)NC3(CC(C)(C)C3)C(=O)N(C)[C@@H](C3CCCC3)C(=O)N(C)[C@H](C(=O)N(C)CC)CC(=O)N(C)[C@@H](CC3CC3)C(=O)N[C@@H]([C@@H](C)CC)C(=O)N(C)CC(=O)N(C)[C@H]3C/C=C\CCN(C3=O)[C@@H](Cc3ccc(C(F)(F)F)cc3)C(=O)N(C)CC(=O)N[C@@H](CCc3cc(F)c(C(F)(F)F)c(F)c3)C(=O)N2C1` [PP1648], the “NRAS/KRAS (KD ratio)” value in assay [1] is “A (a compound having 10 or more and less than 20 is denoted as A)”. In assay [2], the Kd was 0.11 nM. The IC50 in assay [3] stood at 2.1 nM. Besides, in assay [4], the “HRAS/KRAS (KD ratio)” value was “A (a compound having 10 or more and less than 20 is denoted as A)”.
